This note sets out measurements from patent publication US8883826B2, “Alkynyl derivatives as modulators of metabotropic glutamate receptors” (Addex Pharma SA, priority 2004, dated 2014).

A value given as a limit tells only on which side of the number the result lay.

For the test, the target named is T1, mGluR5 (Rattus norvegicus, UniProt P31424).
T1 construct: tissue Charles River Laboratories; host or cells: rat brain cortex membranes (Sprague-Dawley)
T1 sequence (P31424 21-1203): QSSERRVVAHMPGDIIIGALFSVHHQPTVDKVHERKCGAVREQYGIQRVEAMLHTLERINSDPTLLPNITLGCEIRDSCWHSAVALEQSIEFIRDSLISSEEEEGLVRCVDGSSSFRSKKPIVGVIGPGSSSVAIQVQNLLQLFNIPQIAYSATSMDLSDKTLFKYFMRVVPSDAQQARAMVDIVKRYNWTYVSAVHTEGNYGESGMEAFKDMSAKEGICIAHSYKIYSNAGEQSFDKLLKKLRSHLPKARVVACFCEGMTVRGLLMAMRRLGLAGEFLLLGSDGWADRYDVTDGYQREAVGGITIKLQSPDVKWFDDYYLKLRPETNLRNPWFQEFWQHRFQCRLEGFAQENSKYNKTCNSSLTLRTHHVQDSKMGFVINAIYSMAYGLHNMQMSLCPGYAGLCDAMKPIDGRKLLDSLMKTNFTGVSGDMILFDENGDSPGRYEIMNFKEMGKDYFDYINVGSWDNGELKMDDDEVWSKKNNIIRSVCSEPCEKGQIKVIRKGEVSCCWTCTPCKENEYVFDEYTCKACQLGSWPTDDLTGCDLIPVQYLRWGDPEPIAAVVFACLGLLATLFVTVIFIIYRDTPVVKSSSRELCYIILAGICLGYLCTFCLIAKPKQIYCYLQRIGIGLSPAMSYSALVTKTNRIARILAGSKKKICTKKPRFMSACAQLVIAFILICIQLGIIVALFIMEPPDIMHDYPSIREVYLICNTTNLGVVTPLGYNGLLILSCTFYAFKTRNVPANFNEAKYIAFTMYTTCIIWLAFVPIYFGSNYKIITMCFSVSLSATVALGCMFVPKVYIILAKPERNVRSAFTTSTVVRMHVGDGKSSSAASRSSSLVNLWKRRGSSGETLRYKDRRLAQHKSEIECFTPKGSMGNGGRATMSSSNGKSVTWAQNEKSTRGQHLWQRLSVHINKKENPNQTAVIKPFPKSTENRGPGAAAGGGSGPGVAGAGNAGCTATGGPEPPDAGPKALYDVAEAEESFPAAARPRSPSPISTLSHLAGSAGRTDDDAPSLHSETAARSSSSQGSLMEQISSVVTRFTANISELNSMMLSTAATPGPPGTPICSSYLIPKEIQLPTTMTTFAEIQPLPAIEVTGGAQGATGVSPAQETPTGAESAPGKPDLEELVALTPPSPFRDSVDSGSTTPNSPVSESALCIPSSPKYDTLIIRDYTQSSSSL
The experiment in a line: mGluR5 binding assay ([3H]-MPEP radioligand competition). The conditions noted are these: competition with 3 nM [3H]-MPEP, rat brain cortical membranes, 1 h at 4 °C; mean of at least three independent experiments in duplicate. From the text: Activity of compounds of the invention was examined following a radioligand binding technique using whole rat brain and tritiated 2-methyl-6-(phenylethynyl)-pyridine ([^3H]-MPEP) as a ligand following similar methods than those described in F. Gasparini et al. Bioorg. Med. Chem. Lett. 2002, 12, 407-409 and in J. F. Anderson et al. J. Pharmacol. Exp. Ther. 2002, 303, 3, 1044-1051.
Cortices were dissected out from brains of 200-300 g Sprague-Dawley rats (Charles River Laboratories, L'Arbresle, France). Tissues were homogenized in 10 volumes (vol/wt) of ice-cold 50 mM Hepes-NaOH (pH 7.4) using a Polytron disrupter (Kinematica AG, Luzern, Switzerland) and centrifuged for 30 min at 40,000 g. (4° C.). The supernatant was discarded and the pellet washed twice by resuspension in 10 volumes 50 mM HEPES-NaOH. Membranes were then collected by centrifugation and washed before final resuspension in 10 volumes of 20 mM HEPES-NaOH, pH 7.4. Protein concentration was determined by the Bradford method (Bio-Rad protein assay, Reinach, Switzerland) with bovine serum albumin as standard.
[^3H]-MPEP Binding Experiments:
Membranes were thawed and resuspended in binding buffer containing 20 mM HEPES-NaOH, 3 mM MgCl2, 3 mM CaCl2, 100 mM NaCl, pH 7.4. Competition studies were carried out by incubating for 1 h at 4° C.: 3 nM [^3H]-MPEP (39 Ci/mmol, Tocris, Cookson Ltd, Bristol, U.K.), 50 μg membrane and a concentration range of 0.003 nM-30 μM of compounds, for a total reaction volume of 300 μl. The non-specific binding was defined using 30 μM MPEP. Reaction was terminated by rapid filtration over glass-fiber filter plates (Unifilter 96-well GF/B filter plates, Perkin-Elmer, Schwerzenbach, Switzerland) using 4×400 μl ice cold buffer using cell harvester (Filtermate, Perkin-Elmer, Downers Grove, USA). Radioactivity was determined by liquid scintillation spectrometry using a 96-well plate reader (TopCount, Perkin-Elmer, Downers Grove, USA).
The inhibition curves were generated using the Prism GraphPad program (Graph Pad Software Inc, San Diego, USA). IC50 determinations were made from data obtained from 8 point-concentration response curves using a non linear regression analysis.
The table below represents the mean of IC50 obtained from at least three independent experiments of selected molecules performed in duplicate.
Background: Displacement assays read how much labelled ligand stays bound in the presence of the test substance.
The IC50 is the point on the concentration scale where inhibition reaches its midpoint. As for `FC(F)(F)Oc1ccccc1-c1noc(CCC#Cc2ccccn2)n1` [Example 61, 2-(4-(3-(2-(Trifluoromethoxy)phenyl)-1,2,4-oxadiazol-5-yl)but-1-ynyl)pyridine], the IC50 was below 10000 nM. The result for `Fc1ccc2nc(CCC#Cc3ccccn3)oc2c1` [Example 62, 6-Fluoro-2-(4-(pyridin-2-yl)but-3-ynyl)benzo[d]oxazole] reads below 50 nM; that for `Clc1cccc2nc(CCC#Cc3ccccn3)oc12` [Example 63, 7-Chloro-2-(4-(pyridin-2-yl)but-3-ynyl)benzo[d]oxazole], below 50 nM; that for `Fc1cccc2nc(CCC#Cc3ccccn3)oc12` [Example 64, 7-Fluoro-2-(4-(pyridin-2-yl)but-3-ynyl)benzo[d]oxazole], below 50 nM.

`C(#Cc1ccccn1)CCc1ncc(-c2ccccc2)o1` [Example 65, 2-(4-(5-Phenyloxazol-2-yl)but-1-ynyl)pyridine]: the IC50 is below 50 nM. The result for `Cc1c(Cl)cccc1-c1noc(CCC#Cc2ccccn2)n1` [Example 66, 2-(4-(3-(3-Chloro-2-methylphenyl)-1,2,4-oxadiazol-5-yl)but-1-ynyl)pyridine] reads below 500 nM. The result for `Cc1cccn2cc(CCC#Cc3ccccn3)nc12` [Example 67, 8-Methyl-2-(4-(pyridin-2-yl)but-3-ynyl)-imidazo[1,2-a]pyridine] reads below 10000 nM; that for `Cc1cccc2nc(CCC#Cc3ccccn3)cn12` [Example 68, 5-Methyl-2-(4-(pyridin-2-yl)but-3-ynyl)-imidazo[1,2-a]pyridine], below 10000 nM. `C(#Cc1ccccn1)CCc1cn2c(-c3ccccc3)cccc2n1` [Example 69, 5-Phenyl-2-(4-(pyridin-2-yl)but-3-ynyl)-imidazo[1,2-a]pyridine] showed an IC50 below 50 nM. The same measure for `Oc1cccc2oc(CCC#Cc3ccccn3)nc12` [Example 70, 2-(4-(Pyridin-2-yl)but-3-ynyl)benzo[d]oxazol-4-ol]: below 10000 nM. `Fc1ccc(C#CCCc2nc3ccccc3o2)nc1` [Example 71, 2-(4-(5-Fluoropyridin-2-yl)but-3-ynyl)benzo[d]oxazole] came in with an IC50 below 10000 nM. The same measure for `COc1cccc2oc(CCC#Cc3ccccn3)nc12` [Example 72, 4-Methoxy-2-(4-(pyridin-2-yl)but-3-ynyl)benzo[d]oxazole]: below 10000 nM. The result for `Cc1nc(C#CCCc2cn3ccccc3n2)cs1` [Example 73, 2-(4-(2-Methylthiazol-4-yl)but-3-ynyl)imidazo[1,2-a]pyridine] reads below 10000 nM.

Regarding `Fc1ccc2nc(CCC#Cc3ccccn3)cn2c1` [Example 74, 6-Fluoro-2-(4-(pyridin-2-yl)but-3-ynyl)-imidazo[1,2-a]pyridine], the IC50 was below 10000 nM. The result for `Fc1ccc(C#CCCc2cn3ccccc3n2)nc1` [Example 75, 2-(4-(5-Fluoropyridin-2-yl)but-3-ynyl)-imidazo[1,2-a]pyridine] reads below 10000 nM. The same measure for `C(#Cc1ccccn1)CCc1nc2cccnc2o1` [Example 76, 2-(4-(Pyridin-2-yl)but-3-ynyl)oxazolo[5,4-b]pyridine]: below 10000 nM; for `Fc1cc(Cl)c2oc(CCC#Cc3ccccn3)nc2c1` [Example 77, 7-Chloro-5-fluoro-2-(4-(pyridin-2-yl)but-3-ynyl)benzo[d]oxazole]: below 50 nM. The result for `C(#Cc1ccccn1)CCc1nc2ncccc2o1` [Example 78, 2-(4-(Pyridin-2-yl)but-3-ynyl)oxazolo[4,5-b]pyridine] reads below 10000 nM; that for `N#Cc1ccc2oc(CCC#Cc3ccccn3)nc2c1` [Example 79, 2-(4-(Pyridin-2-yl)but-3-ynyl)benzo[d]oxazole-5-carbonitrile], below 10000 nM. For the molecule `Cc1nc(C#CCCc2nc3cc(F)cc(Cl)c3o2)cs1` [Example 80, 7-Chloro-5-fluoro-2-(4-(2-methylthiazol-4-yl)but-3-ynyl)benzo[d]oxazole], the IC50 was below 50 nM. `FC(F)(F)c1cccc2nc(CCC#Cc3ccccn3)oc12` [Example 81, 7-(Trifluoromethyl)-2-(4-(pyridin-2-yl)but-3-ynyl)benzo[d]oxazole] came in with an IC50 below 50 nM. The same measure for `Fc1cc(Br)c2oc(CCC#Cc3ccccn3)nc2c1` [Example 82, 7-Bromo-5-fluoro-2-(4-(pyridin-2-yl)but-3-ynyl)benzo[d]oxazole]: below 50 nM; for `Fc1cc(-c2ccccc2)c2oc(CCC#Cc3ccccn3)nc2c1` [Example 83, 5-Fluoro-7-phenyl-2-(4-(pyridin-2-yl)but-3-ynyl)benzo[d]oxazole]: below 10000 nM; for `Clc1nccc(C#CCCc2nc3ccccc3o2)n1` [Example 84, 2-(4-(2-Chloropyrimidin-4-yl)but-3-ynyl)benzo[d]oxazole]: below 10000 nM. Turning to `Brc1cccc2oc(CCC#Cc3ccccn3)nc12` [Example 86, 4-Bromo-2-(4-(pyridin-2-yl)but-3-ynyl)benzo[d]oxazole], the IC50 is below 50 nM.

In turn, `C(#Cc1ccccn1)CCc1nc2c(-c3ccccc3)cccc2o1` [Example 87, 4-Phenyl-2-(4-(pyridin-2-yl)but-3-ynyl)benzo[d]oxazole] displayed an IC50 below 10000 nM. The same measure for `Clc1cccc2oc(CCC#Cc3ccccn3)nc12` [Example 88, 4-Chloro-2-(4-(pyridin-2-yl)but-3-ynyl)benzo[d]oxazole]: below 50 nM. The result for `Cc1cccc2nc(CCC#Cc3ccccn3)oc12` [Example 91, 7-Methyl-2-(4-(pyridin-2-yl)but-3-ynyl)benzo[d]oxazole] reads below 50 nM. The result for `COc1cccc2nc(CCC#Cc3ccccn3)oc12` [Example 94, 7-Methoxy-2-(4-(pyridin-2-yl)but-3-ynyl)benzo[d]oxazole] reads below 50 nM; that for `CC(C)c1cccc2nc(CCC#Cc3ccccn3)oc12` [Example 95, 7-Isopropyl-2-(4-(pyridin-2-yl)but-3-ynyl)benzo[d]oxazole], below 10000 nM; that for `Fc1ccc(F)c2oc(CCC#Cc3ccccn3)nc12` [Example 96, 4,7-Difluoro-2-(4-(pyridin-2-yl)but-3-ynyl)benzo[d]oxazole], below 50 nM.

Regarding `Fc1ccc(C(F)(F)F)c2nc(CCC#Cc3ccccn3)oc12` [Example 97, 7-Fluoro-4-(trifluoromethyl)-2-(4-(pyridin-2-yl)but-3-ynyl)benzo[d]oxazole], the IC50 is below 10000 nM.

Consider `C(#Cc1ccncn1)CCc1nc2ccccc2o1` [Example 98, 2-(4-(Pyrimidin-4-yl)but-3-ynyl)benzo[d]oxazole], for which the IC50 was below 10000 nM. The result for `CN(C(=O)CCC#Cc1ccccn1)c1cccc(Cl)c1` [Example 99, N-(3-Chlorophenyl)-N-methyl-5-(pyridin-2-yl)pent-4-ynamide] reads below 10000 nM; that for `Cc1ccc(Cl)c2sc(CCC#Cc3ccccn3)nc12` [Example 100, 7-Chloro-4-methyl-2-(4-(pyridin-2-yl)but-3-ynyl)benzo[d]thiazole], below 10000 nM. The result for `Fc1cccc2sc(CCC#Cc3ccccn3)nc12` [Example 101, 4-Fluoro-2-(4-(pyridin-2-yl)but-3-ynyl)benzo[d]thiazole] reads below 50 nM; that for `Cc1ccc(C)c2sc(CCC#Cc3ccccn3)nc12` [Example 102, 4,7-Dimethyl-2-(4-(pyridin-2-yl)but-3-ynyl)benzo[d]thiazole], below 10000 nM. The result for `Cc1cccc2sc(CCC#Cc3ccccn3)nc12` [Example 103, 4-Methyl-2-(4-(pyridin-2-yl)but-3-ynyl)benzo[d]thiazole] reads below 50 nM; that for `Fc1ccc2sc(CCC#Cc3ccccn3)nc2c1` [Example 104, 5-Fluoro-2-(4-(pyridin-2-yl)but-3-ynyl)benzo[d]thiazole], below 50 nM; that for `Clc1cccc2sc(CCC#Cc3ccccn3)nc12` [Example 105, 4-Chloro-2-(4-(pyridin-2-yl)but-3-ynyl)benzo[d]thiazole], below 50 nM. `Cn1c(CCC#Cc2ccccn2)nc2ccccc21` [Example 107, 1-Methyl-2-(4-(pyridin-2-yl)but-3-ynyl)-1H-benzo[d]imidazole]: the IC50 is below 500 nM. The same measure for `C(#Cc1ccccn1)CCn1cc2ccccc2n1` [Example 108, 2-(4-(Pyridin-2-yl)but-3-ynyl)-2H-indazole]: below 500 nM; for `C(#Cc1ccccn1)CCn1nc2ccccc2n1` [Example 109, 2-(4-(Pyridin-2-yl)but-3-ynyl)-2H-benzo[d][1,2,3]triazole]: below 500 nM.
